“Also recorded” adds a separate entry of the source. Where two headings read alike, the source gives them in different places.
What was measured:
Colletotrichum [1] = assay: Screening for stem end rot (Colletotrichum) infection control, California avocados; format: in vivo
Text: To screen for infection control of stem end rot (Colletotrichum) with epicatechin, ASM, and MeSA (methyl salicylate), California avocados size 84 were infected with Colletotrichum spores (103 spores/ml) and treated with 0.01% an imidazole antifungal agent, such as Prochloraz, 0.1% epicatechin, 0.01% ASM, or 0.1% MeSA, as indicated. Uninfected and infected controls were not exposed to treatments. […] Disease index is on a scale from 0-1 and takes into account both the percent of fruit infected and the average severity of the infection in the sample group. The average severity is on a scale from 0-4. Percent disease index is calculated as follows: (Percent infected*Average infection severity)/4.

Colletotrichum [2] = assay: Salicylic acid, sodium salicylate and chitosan on stem end rot of infected California avocados; format: in vivo
Description: To determine the impact of salicylic acid, sodium salicylate, and chitosan on stem end rot (Colletotrichum), California avocados size 96 were infected with 10^3 Colletotrichum spores and treated with 0.01% of an imidazole antifungal agent, such as Prochloraz, 0.05% salicylic acid, 0.1% salicylic acid, 0.2% salicylic acid, 1% sodium salicylate, or 1% chitosan+5 mM C10 monoglyceride. Uninfected and infected controls were not exposed to treatments. Following treatment, the percent disease index of stem end rot was determined for each avocado. […] However, the 1% chitosan+5 mM C10 monoglyceride treatment sample size was 14 avocados.

[3] = Viscosity and pH of salicylic acid and mixture combinations; format: physicochemical; conditions: salicylic acid 0.15-1.0 g/L in water
Text: The viscosity decreased as the mixture concentration increased, and as the salicylic acid concentration increased (FIG. 11A). […] The maximum amount of salicylic acid that could be added was about 2% of the weight of the mixture (FIG. 10).

Colletotrichum [4] = assay: Sequential salicylic acid and mixture treatments on stem end rot of infected Mexican avocados; format: in vivo
Description: The pH was adjusted with 1M NaOH. Salicylic acid treatments were performed and dried before subsequent treatments with the mixture of glycerol monostearate and sodium stearate were performed for combinatorial treatments. Controls with salicylic acid treatment and a subsequent treatment with water were also performed. Uninfected controls were not exposed to treatments. Following treatment, the disease index of stem end rot was determined for each avocado. […] Salicylic acid was effective in treatments with salicylic acid first and the mixture of glycerol monostearate and sodium stearate treatment second (FIG. 9).

stem end rot [5] = assay: Avocado storage, five days: incidence and severity of stem end rot; format: in vivo; conditions: Mexican avocados size 60, five days
Text: (§1) To determine the impact of salicylic acid and a mixture of 94% glycerol monostearate and a 6% fatty acid salt combinatorial treatment on avocado, Mexican avocados size 60 were exposed to 0.6 g/L salicylic acid, 2.0 g/L salicylic acid, 30 g/L a mixture of glycerol monostearate and sodium stearate, or 0.6 g/L salicylic acid+30 g/L a mixture of glycerol monostearate and sodium stearate treatments. To treat, avocados were removed form cold storage and left at room temperature for four hours. Avocados were then dipped in treatments as indicated and dried in a drying tunnel. Uninfected controls were not exposed to treatments. Avocados were monitored for five days for CO2 production (respiration) rate, mass loss, incidence of stem end rot, and severity of stem end rot disease on a 1-4 stem end rot severity scale (STR). The experiment was concluded when untreated avocados reached a ripeness of <35 shore. […] This may be due to changes in barrier stability or properties.

[6] = Avocado storage, five days: CO2 production (respiration), salicylic acid and mixture; format: in vivo; conditions: Mexican avocados size 60, 0.6 g/L or 2.0 g/L salicylic acid
Text: as §1

Colletotrichum [7] = assay: Salicylic acid and chitosan combinations on stem end rot of infected Mexican avocados; format: in vivo; conditions: infected Mexican avocados size 84, 0.2%, compared with the other treatments
Description: To determine the impact of salicylic acid and chitosan combinations on stem end rot (Colletotrichum), Mexican avocados size 84 were infected with 103 Colletotrichum spores and treated with 0.01% of an imidazole antifungal agent, such as Prochloraz, 0.1% low molecular weight chitosan (1 g/L), 0.2% salicylic acid, or 0.2% salicylic acid+0.1% chitosan. Uninfected and infected controls were not exposed to treatments. Following treatment, the percent disease index of stem end rot was determined for each avocado.

[8] = Avocado storage: CO2 production (respiration) and mass loss, salicylic acid; format: in vivo; conditions: Mexican avocados size 60 stored about one month, 0.6 g/L, two days
Text: (§2) Avocados were Mexican avocados size 60. […] Avocados were monitored for two days for CO2 production (respiration) rate, mass loss, incidence of stem end rot, and severity of stem end rot disease. […] This could be due to changes in the barrier stability or barrier properties when salicylic acid is combined with the mixture of glycerol monostearate and sodium stearate. When comparing the mass loss factor using the salicylic acid+the mixture of glycerol monostearate and sodium stearate to the mixture itself, there was a 0.35× improvement. Severity of stem end rot disease was measured on a 1-4 stem end rot severity scale (STR).

Colletotrichum [9] = conditions: cited from earlier work
Colletotrichum [10] = assay: Salicylic acid and pH on stem end rot of infected Mexican avocados; format: in vivo
Description: To determine the impact of salicylic acid and pH on stem end rot (Colletotrichum), Colletotrichum disease indices of avocados were determined with various treatments. […] Mexican avocados size 84 were infected with 103 Colletotrichum spores and treated with 1M NaOH pH 6, 0.01% of an imidazole antifungal agent, such as Prochloraz, 0.2% salicylic acid pH 2.5, or 0.2% salicylic acid pH 6. pH was adjusted with 1M NaOH. Uninfected and infected controls were not exposed to treatments. Infection rate was near 100% for the water treated control. Treatment of infected avocados with pH 2.5. […] Treatment with salicylic acid at pH 2.5 reduced percent infection by nearly 70%. However, the percent disease index remained at 100% during treatment with salicylic acid at a pH of 6 (FIG. 7).

stem end rot [11] = assay: Avocado storage: incidence and severity of stem end rot, salicylic acid; format: in vivo; conditions: Mexican avocados size 60, 0.6 g/L salicylic acid, two days
Text: as §2

[12] = Mixture and carvacrol on avocados: respiration and mass loss; format: in vivo
Description: (§3) Fifty-four avocados were tested per treatment. Avocados were dipped into treatment liquids and allowed to dry. Respiration (CO2 production), mass loss, disease indices of stem end rot and vascular browning were measured. […] The timing of spoilage was affected by treatments (FIG. 14).

vascular browning = assay: Mixture and carvacrol on avocados: incidence of vascular browning; format: in vivo; conditions: 10 g/L carvacrol alone
Description: as §3

[13] = Mixture and carvacrol on organic lemons in cold storage: mass loss and quality; format: in vivo; conditions: carvacrol alone (10 g/L carvacrol+50 g/L ethanol), dried in ambient conditions
Description: Batches of 120 lemons per condition were used. Lemons were dipped into a treatment or left untreated, dried in ambient conditions, and stored at 8° C., 80% relative humidity for several weeks. Mass loss was measured.

[14] = Mixture with increasing carvacrol and ethanol on organic lemons: mass loss and quality; format: in vivo; conditions: heated drying in a drying tunnel
Description: Specifically, 1 g/L carvacrol+5 g/L ethanol, 2 g/L carvacrol+10 g/L ethanol, 3 g/L carvacrol+15 g/L ethanol, 6 g/L carvacrol+30 g/L ethanol, or 8 g/L carvacrol+40 g/L ethanol. Batches of 120 lemons per condition were used. Lemons were dipped into a treatment or left untreated, dried in heated conditions in a drying tunnel, and stored at ambient conditions. Mass loss was measured.

[15] = Organic mixture and carvacrol on wounded organic lemons: mass loss and skin damage; format: in vivo; conditions: carvacrol alone (5 g/L carvacrol+0.25 g/L sodium stearate)
Text: To determine the impact of an organic mixture of glycerol monostearate and sodium stearate mixed with carvacrol on mass loss and mold incidence in organic lemons, unwaxed California organic lemons sized 140 were exposed to 30 g/L an organic mixture of glycerol monostearate and sodium stearate mixed, 30 g/L an organic mixture of glycerol monostearate and sodium stearate+5 g/L carvacrol, or 5 g/L carvacrol+0.25 g/L sodium stearate, or were untreated. Batches of 140 lemons per condition were used. Lemons were physically wounded with the stem of another lemon, dipped into a treatment or left untreated, and dried in ambient conditions. Mass loss and disease incidence (% of group with mold) were measured. The addition of carvacrol to an organic mixture of glycerol monostearate and sodium stearate mixed with carvacrol increased mass loss factor to 1.7×compared to the organic mixture of glycerol monostearate and sodium stearate mixed with carvacrol alone, which was 1.3× of the untreated group (FIG. 15A). The addition of carvacrol to an organic mixture of glycerol monostearate and sodium stearate mixed with carvacrol reduced the incidence of mold ˜12% from untreated lemons and 22% from an organic mixture of glycerol monostearate and sodium stearate mixed with carvacrol alone treated lemons after 6.5 days of ambient storage (FIG. 15B).

stem end rot [16] = assay: Mixture and carvacrol on avocados: incidence of stem end rot; format: in vivo; conditions: 10 g/L carvacrol alone
Description: as §3

[17] = infected California avocados size 84, treatment 0.01%

Question: For `COC(=O)c1ccccc1O` [MeSA, methyl salicylate], which “percent disease index for stem end rot” value (Colletotrichum [1]; infected California avocados size 84, treatment 0.1%) is on record?
Answer: no observed effect

Question: For `O=C([O-])c1ccccc1O.[Na+]` [sodium salicylate], which “percent disease index of stem end rot” value (Colletotrichum [2]; infected California avocados size 96, 1%) is on record?
Answer: did not significantly reduce the disease index

Question: For `CSC(=O)c1cccc2nnsc12` [ASM, Acibenzolar-S-Methyl], which “percent disease index for stem end rot” value (Colletotrichum [1]; [17]) is on record?
Answer: significantly smaller disease indices compared to the infected control

Question: Which results are given for `O=C(O)c1ccccc1O` [salicylic acid]?
Answer: pH in water [3]: 2-2.5; percent disease index of stem end rot versus infected water control (Colletotrichum [4]; infected Mexican avocados size 84, decreased concentration (0.06%), pH 2.3): more effective than then infected water control treatment; percent disease index of stem end rot, effect of decreasing concentration (Colletotrichum [4]; infected Mexican avocados size 84, from 0.2% to 0.06%, pH 2.3): reduced the effectiveness of the treatment; percent disease index of stem end rot (Colletotrichum [4]; salicylic acid treatment dried, then a second treatment (mixture or water)): reduced the percent disease indices; incidence of stem end rot (stem end rot [5]): slight reductions; severity of stem end rot (1-4 STR scale) (stem end rot [5]): slight reductions; CO2 production (respiration) [6]: did not increase CO2 production (respiration) compared to the control; percent disease index of stem end rot (Colletotrichum [7]): greatest effect; percent disease index of stem end rot (Colletotrichum [2]; infected California avocados size 96, 0.05%): reduced the stem end rot disease index; percent disease index of stem end rot (Colletotrichum [2]; infected California avocados size 96, 0.1%): reduced the stem end rot disease index; percent disease index of stem end rot (Colletotrichum [2]; infected California avocados size 96, 0.2%): reduced the stem end rot disease index; also recorded: most effective; CO2 production (respiration) rate [8]: increased the respiration compared to the control; germination (Colletotrichum [9]; pH 2.5): inhibits germination; germination (Colletotrichum [9]; pH raised to pH 6): loses its inhibitory effect; reduction of percent infection (Colletotrichum [10]; infected Mexican avocados size 84, 0.2% salicylic acid pH 2.5): ~70%; percent disease index (Colletotrichum [10]; infected Mexican avocados size 84, 0.2% salicylic acid pH 6): 100%; incidence of stem end rot (stem end rot [11]): not incidence; severity of stem end rot disease (1-4 STR scale) (stem end rot [11]): reduce the severity

Question: Which results are given for `Cc1ccc(C(C)C)cc1O` [carvacrol]?
Answer: respiration (CO2 production) ([12]; California avocados sized 96, 10 g/L carvacrol alone): may have accelerated respiration; mass loss ([12]; California avocados sized 96, 10 g/L carvacrol, versus untreated avocados): negligible effect on mass loss; disease incidence of vascular browning (vascular browning): almost eliminated disease incidence; damage to lemon skin [13]: skin burns; also recorded: damaged the lemon skin; carvacrol lemon skin burns [14]: prevented carvacrol lemon skin burns; damage to lemon skin [15]: damaged the lemon skin; disease incidence of stem end rot (stem end rot [16]): almost eliminated disease incidence

Question: Which “percent disease index of stem end rot” value (Colletotrichum [2]; infected California avocados size 96, 0.01%) does the source give for `CCCN(CCOc1c(Cl)cc(Cl)cc1Cl)C(=O)n1ccnc1` [Prochloraz] here?
Answer: effective at decreasing the disease index compared to the infected control

Question: What about the “percent disease index for stem end rot” value (Colletotrichum [1]; [17]) of the same compound?
Answer: effective at decreasing the observed disease index

Reference: patent US20260096569A1, “EDIBLE COATING WITH ANTIMICROBIAL PROPERTIES” (priority 2021, published 2026)
